We go through 27 compounds from ChEMBL document CHEMBL1145925, “Carbonic anhydrase inhibitors: inhibition of transmembrane, tumor-associated isozyme IX, and cytosolic isozymes I and II with aliphatic sulfamates” (J Med Chem, 2003).

Molecules are shown by their SMILES. pKi: −log10 of the molar value. “And” between values parts separate entries of the source, which are not always exact repeats. Identical values can stand only once.

Experiment [1] deals with Carbonic anhydrase 9 (Homo sapiens, UniProt Q16790).
Experiment [2] concerns the target Carbonic anhydrase 1 (Homo sapiens, UniProt P00915).
Experiment [3] has as its target Carbonic anhydrase 2 (Homo sapiens, UniProt P00918).

Sequence of Carbonic anhydrase 1 (P00915 whole entry): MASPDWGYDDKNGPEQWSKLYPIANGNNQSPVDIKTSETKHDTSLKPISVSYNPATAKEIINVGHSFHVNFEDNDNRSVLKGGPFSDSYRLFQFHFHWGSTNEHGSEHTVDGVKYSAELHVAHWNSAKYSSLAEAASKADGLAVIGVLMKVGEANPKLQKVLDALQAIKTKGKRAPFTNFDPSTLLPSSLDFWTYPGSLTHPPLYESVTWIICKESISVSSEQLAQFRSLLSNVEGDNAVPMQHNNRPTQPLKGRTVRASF

Consider `C#CCCOS(N)(=O)=O`, for which the pKi in experiment [1] was 6.20; in experiment [2] it was 3.00; in experiment [3] it was 5.23.
For `NS(=O)(=O)OCC1c2ccccc2-c2ccccc21`, in that order: below 6.00, 4.42 and 5.35.
Take `NS(=O)(=O)OCC(F)(F)F`: the pKi in experiment [1] is 6.34; in experiment [2], 5.11; in experiment [3] it was 6.07.
The matching figures for `Cc1ccc(COS(N)(=O)=O)cc1`: 7.89, 7.00 and 8.57.
For the compound `NS(=O)(=O)OCCCCl`, the pKi in experiment [1] was below 6.00; in experiment [2], 5.34; in experiment [3], 6.24.
For `C[C@]12CCC(OS(N)(=O)=O)CC1=C[C@@H](O)C1C2CC[C@]2(C)C(=O)CCC12` (stereo partly specified), in that order: 7.19, 6.40 and 7.89.
Regarding `C=CCCOS(N)(=O)=O`, the pKi in experiment [1] was 6.41; in experiment [2], 3.10; in experiment [3], 6.05.
On to `CC(C)CCC[C@@H](C)[C@H]1CCC2C3CC=C4C[C@@H](OS(N)(=O)=O)CC[C@]4(C)C3CCC21` (stereo partly specified), for which the results for the pKi in experiment [1], in experiment [2] and in experiment [3] were below 6.00, below 3.00 and below 5.00, respectively.
For `NS(=O)(=O)OC(C(F)(F)F)C(F)(F)F`, in that order: 6.55, 5.45 and 5.80.
In the case of `NS(=O)(=O)OCc1ccc(-c2ccccc2)cc1`, the pKi is below 6.00 in experiment [1] and below 3.00 in experiment [2].
Regarding `C[C@]12CCC(OS(N)(=O)=O)CC1=CC(=O)C1C2CC[C@]2(C)C(=O)CCC12` (stereo partly specified), the figures for the pKi in experiment [1], in experiment [2] and in experiment [3] were 7.12, 6.39 and 7.64, respectively.
As for `CCCCCCCCCCOS(N)(=O)=O` [DECYL SULFAMATE], the pKi in experiment [1] is 7.64 and 6.85.
On to `NS(=O)(=O)OCc1ccccc1` [SULFAMIC ACID BENZYL ESTER], for which the pKi is 7.85 in experiment [1], 6.12 in experiment [2] and 8.47 in experiment [3].
On to `CCCCOS(N)(=O)=O` [SULFAMIC ACID BUTYL ESTER], for which the pKi in experiment [1] is below 6.00; in experiment [2] it was 5.51; in experiment [3] it was 7.15.
Take `NS(=O)(=O)OC1CCCCC1` [SULFAMIC ACID CYCLOHEXYL ESTER]: the results for the pKi in experiment [1], in experiment [2] and in experiment [3] were below 6.00, 4.23 and 7.22, respectively.
As for `NS(=O)(=O)OC1CCCC1` [SULFAMIC ACID CYCLOPENTYL ESTER], the pKi was below 6.00 in experiment [1], below 3.00 in experiment [2] and below 5.00 in experiment [3].
For the compound `CCCCCCCCCCCCOS(N)(=O)=O` [SULFAMIC ACID DODECYL ESTER], the values for the pKi in experiment [1], in experiment [2] and in experiment [3] were 8.05, 6.57 and 8.00, respectively.
As for `CCOS(N)(=O)=O` [SULFAMIC ACID ETHYL ESTER], the values for the pKi in experiment [1], in experiment [2] and in experiment [3] were below 6.00, 4.42 and 5.26, respectively.
Take `CCCCCCCCCCCCCCCCOS(N)(=O)=O` [SULFAMIC ACID HEXADECYL ESTER]: the figures for the pKi in experiment [2] and in experiment [3] were 4.24 and 7.01, respectively.
`CC(C)OS(N)(=O)=O` [SULFAMIC ACID ISOPROPYL ESTER]: the pKi was below 6.00 in experiment [1], 3.16 in experiment [2] and below 5.00 in experiment [3].
The matching figures for `COS(N)(=O)=O` [SULFAMIC ACID METHYL ESTER]: below 6.00, 4.40 and 5.22.
Consider `CCCCCCCCCCCCCCCCCCOS(N)(=O)=O` [SULFAMIC ACID OCTADECYL ESTER], for which the pKi in experiment [1] is 6.92; in experiment [2], 4.19; in experiment [3], 6.89.
On to `CCCCCOS(N)(=O)=O` [SULFAMIC ACID PENTYL ESTER], for which the pKi is 6.15 in experiment [2] and 7.24 in experiment [3].
As to `NS(=O)(=O)OCCc1ccccc1` [SULFAMIC ACID PHENETHYL ESTER], the pKi in experiment [1] is 7.92; in experiment [2], 6.39; in experiment [3] it was 8.96.
As for `CCCOS(N)(=O)=O` [SULFAMIC ACID PROPYL ESTER], the pKi in experiment [1] was below 6.00; in experiment [2], 5.43; in experiment [3], 6.12.
As for `CCCCCCCCCCCCCCOS(N)(=O)=O` [SULFAMIC ACID TETRADECYL ESTER], the pKi in experiment [1] was 7.82; in experiment [2], 6.82; in experiment [3], 7.06.
For the compound `CCCCCCCCCCCOS(N)(=O)=O` [SULFAMIC ACID UNDECYL ESTER], the pKi in experiment [1] is 7.77; in experiment [2], 6.37; in experiment [3] it was 8.33.

The pKi is the negative decadic logarithm of the Ki, by convention in mol/L. High values mean a low Ki, low ones a high Ki.
